Experimental data from ChEMBL document CHEMBL1201862, “PubChem BioAssay data set” (2004).
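Results reflect a 48-hour exposure of cells in 96-well plates to compound at five concentrations. Abbreviation: GI50, concentration required for 50% inhibition of growth.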 The source made the active and inactive calls. Cut-off read from the data, not from the text of the source: active = GI50 up to about 1.1 µM and inactive = higher.

Columns and labels:
Experiment in all cases: DTP human tumour cell line panel, 48 h
A498 = tested on: A498
NCI-H460 = tested on: NCI-H460
SK-OV-3 = tested on: SK-OV-3
SK-MEL-28 = tested on: SK-MEL-28
SK-MEL-2 = tested on: SK-MEL-2
HOP-92 = tested on: HOP-92
UACC-62 = tested on: UACC-62
KM-20L2 = tested on: KM-20L2
IGROV-1 = tested on: IGROV-1
M19-MEL = tested on: M19-MEL
HT-29 = tested on: HT-29
COLO 205 = tested on: COLO 205
786-0 = tested on: 786-0
CAKI-1 = tested on: CAKI-1
SF-539 = tested on: SF-539
HCC 2998 = tested on: HCC 2998
SR = tested on: SR
NCI/ADR-RES = tested on: NCI/ADR-RES
Hs-578T = tested on: Hs-578T
PC-3 = tested on: PC-3

Row | SMILES | GI50 (A498) | GI50 (NCI-H460) | GI50 (SK-OV-3) | GI50 (SK-MEL-28) | GI50 (SK-MEL-2) | GI50 (HOP-92) | GI50 (UACC-62) | GI50 (KM-20L2) | GI50 (IGROV-1) | GI50 (M19-MEL) | GI50 (HT-29) | GI50 (COLO 205) | GI50 (786-0) | GI50 (CAKI-1) | GI50 (SF-539) | GI50 (HCC 2998) | GI50 (SR) | GI50 (NCI/ADR-RES) | GI50 (Hs-578T) | GI50 (PC-3)
1 | Cn1c(O)c(C(=O)Nc2cccs2)c(=O)[nH]c1=S | 19.9 µM (inactive) | 19.4 µM (inactive) | 16 µM (inactive) | 15.1 µM (inactive) | 16.4 µM (inactive) | 12.6 µM (inactive) | 14.1 µM (inactive) | 19.7 µM (inactive) | 18.2 µM (inactive) | 19.1 µM (inactive) | 18.2 µM (inactive) | 16.6 µM (inactive) | 20.2 µM (inactive) | 13 µM (inactive) | 16.5 µM (inactive) | – | – | – | – | –
2 | Cc1nn(-c2ccccc2)c(-c2ccccc2[N+](=O)[O-])c1CC#N | – | > 100 µM (inactive) | > 100 µM (inactive) | > 100 µM (inactive) | > 100 µM (inactive) | 27.8 µM (inactive) | 78.5 µM (inactive) | > 100 µM (inactive) | > 100 µM (inactive) | > 100 µM (inactive) | – | > 100 µM (inactive) | > 100 µM (inactive) | > 100 µM (inactive) | > 100 µM (inactive) | > 100 µM (inactive) | – | – | – | –
3 | Clc1ccc(-c2nnc(-c3nn(-c4ccccc4)c4nc5ccccc5nc34)o2)cc1 | – | > 100 µM (inactive) | > 100 µM (inactive) | > 100 µM (inactive) | > 100 µM (inactive) | – | 67.8 µM (inactive) | > 100 µM (inactive) | 65.3 µM (inactive) | 70.6 µM (inactive) | > 100 µM (inactive) | > 100 µM (inactive) | > 100 µM (inactive) | > 100 µM (inactive) | > 100 µM (inactive) | > 100 µM (inactive) | – | – | – | –
4 | CCOP(=O)(OCC)C1CCCOC1=O (stereo not given) | > 100 µM (inactive) | > 100 µM (inactive) | > 100 µM (inactive) | > 100 µM (inactive) | > 100 µM (inactive) | – | > 100 µM (inactive) | > 100 µM (inactive) | > 100 µM (inactive) | > 100 µM (inactive) | > 100 µM (inactive) | > 100 µM (inactive) | > 100 µM (inactive) | > 100 µM (inactive) | > 100 µM (inactive) | > 100 µM (inactive) | – | – | – | –
5 | C1=CC(=P(c2ccccc2)(c2ccccc2)c2ccccc2)C=C1 | – | 7.83 µM (inactive) | 18.2 µM (inactive) | 4.45 µM (inactive) | 13.3 µM (inactive) | 6.14 µM (inactive) | 6.25 µM (inactive) | 11.3 µM (inactive) | 11.5 µM (inactive) | 4.04 µM (inactive) | 10.6 µM (inactive) | 4.13 µM (inactive) | 10.4 µM (inactive) | 17.9 µM (inactive) | 14.8 µM (inactive) | 10.6 µM (inactive) | – | – | – | –
6 | C=C(c1ccccc1)c1cc2c(=O)[nH]ccc2n1C | – | 30.1 µM (inactive) | 26 µM (inactive) | 44.7 µM (inactive) | 21.5 µM (inactive) | 14.2 µM (inactive) | 28.5 µM (inactive) | 23.3 µM (inactive) | 44.4 µM (inactive) | 38.6 µM (inactive) | – | 15.9 µM (inactive) | 27.5 µM (inactive) | 33.2 µM (inactive) | – | 35 µM (inactive) | – | – | – | –
7 | CC(O)c1cc2c(s1)C(=O)c1scc(C(C)O)c1C2=O (stereo not given) | 2.2 µM (inactive) | 0.757 µM (active) | 2.64 µM (inactive) | 0.279 µM (active) | 0.224 µM (active) | 1.96 µM (inactive) | 0.245 µM (active) | – | 1.68 µM (inactive) | – | 2.43 µM (inactive) | 1.91 µM (inactive) | 2.07 µM (inactive) | 1.01 µM (active) | 0.23 µM (active) | 1.66 µM (inactive) | 0.271 µM (active) | 0.283 µM (active) | 0.394 µM (active) | 0.388 µM (active)
8 | Cc1ccc(S(=O)(=O)NC(=O)C2=C3SCCN3C(=O)N(S(=O)(=O)c3ccc(C)cc3)C2c2ccccc2)cc1 (stereo not given) | > 100 µM (inactive) | 71.1 µM (inactive) | 24.1 µM (inactive) | 50.2 µM (inactive) | 46.8 µM (inactive) | 28.1 µM (inactive) | 37.3 µM (inactive) | – | 46.9 µM (inactive) | – | 34.4 µM (inactive) | 19.9 µM (inactive) | 51.9 µM (inactive) | > 100 µM (inactive) | 25.6 µM (inactive) | 12.2 µM (inactive) | 31.4 µM (inactive) | > 100 µM (inactive) | 48.4 µM (inactive) | 33.9 µM (inactive)
9 | OC(CCN1CCN(CCOC(c2ccc(F)cc2)c2ccc(F)cc2)CC1)c1ccccc1 (stereo not given) | 5.06 µM (inactive) | 16.7 µM (inactive) | 16.3 µM (inactive) | 17.5 µM (inactive) | 15.3 µM (inactive) | 10.3 µM (inactive) | 14.5 µM (inactive) | – | 13.6 µM (inactive) | – | 8.65 µM (inactive) | 4.09 µM (inactive) | 12.9 µM (inactive) | 16.8 µM (inactive) | 11.1 µM (inactive) | 3.52 µM (inactive) | 5.48 µM (inactive) | 13.3 µM (inactive) | 16 µM (inactive) | 13.6 µM (inactive)
10 | CC(C)(/N=N/C(C)(C)C(=N)N)C(=N)N | > 100 µM (inactive) | > 100 µM (inactive) | > 100 µM (inactive) | > 100 µM (inactive) | > 100 µM (inactive) | > 100 µM (inactive) | > 100 µM (inactive) | – | > 100 µM (inactive) | – | > 100 µM (inactive) | > 100 µM (inactive) | > 100 µM (inactive) | > 100 µM (inactive) | > 100 µM (inactive) | > 100 µM (inactive) | > 100 µM (inactive) | > 100 µM (inactive) | > 100 µM (inactive) | > 100 µM (inactive)
11 | CCOC(=O)/C=C(/C(=O)OCC)n1cc(C)c(=O)[nH]c1=O | 12.9 µM (inactive) | 14.6 µM (inactive) | 18.3 µM (inactive) | 4.78 µM (inactive) | 7 µM (inactive) | 1.71 µM (inactive) | 5.14 µM (inactive) | – | 5.36 µM (inactive) | – | 4.92 µM (inactive) | 1.81 µM (inactive) | 2.49 µM (inactive) | 1.15 µM (inactive) | 13.2 µM (inactive) | 5.71 µM (inactive) | 1.92 µM (inactive) | 10.9 µM (inactive) | 17.7 µM (inactive) | 8.15 µM (inactive)
12 | CCc1ccccc1NC(=O)C1=C(C)NC(C)=C(C(=O)Nc2ccccc2CC)C1c1cccc([N+](=O)[O-])c1 | 24.2 µM (inactive) | 27.7 µM (inactive) | > 100 µM (inactive) | 40.9 µM (inactive) | 19.5 µM (inactive) | 13.2 µM (inactive) | – | 31 µM (inactive) | 21.8 µM (inactive) | 44.7 µM (inactive) | 37.1 µM (inactive) | 34.7 µM (inactive) | 43 µM (inactive) | 43.8 µM (inactive) | 43.9 µM (inactive) | 11.7 µM (inactive) | – | – | – | –
13 | c1cncc(CSc2nc3ccccc3nc2-c2cccs2)c1 | – | 56 µM (inactive) | – | > 100 µM (inactive) | 87.1 µM (inactive) | – | – | – | – | > 100 µM (inactive) | 57.1 µM (inactive) | > 100 µM (inactive) | 58.2 µM (inactive) | > 10 µM (inactive) | 71.8 µM (inactive) | 86.1 µM (inactive) | 40.9 µM (inactive) | – | – | –
14 | Cc1ccnc2nc(-c3cccc(Cl)c3)cc(O)c12 | 0.234 µM (active) | 0.0386 µM (active) | 0.267 µM (active) | 1.9 µM (inactive) | 0.0675 µM (active) | 2.43 µM (inactive) | 0.0474 µM (active) | – | 0.185 µM (active) | – | 0.0401 µM (active) | 0.0598 µM (active) | 0.08 µM (active) | 1.33 µM (inactive) | 0.0906 µM (active) | 0.224 µM (active) | 0.0325 µM (active) | 0.1 µM (active) | 0.44 µM (active) | 0.0206 µM (active)
15 | OC(COc1ccccc1)CN1CCCCC1 (stereo not given) | > 100 µM (inactive) | > 100 µM (inactive) | > 100 µM (inactive) | > 100 µM (inactive) | > 100 µM (inactive) | > 100 µM (inactive) | > 100 µM (inactive) | – | > 100 µM (inactive) | – | > 100 µM (inactive) | > 100 µM (inactive) | > 100 µM (inactive) | > 100 µM (inactive) | > 100 µM (inactive) | > 100 µM (inactive) | > 100 µM (inactive) | > 100 µM (inactive) | > 100 µM (inactive) | > 100 µM (inactive)
16 | CO/N=C(/C(=O)Nc1c[n+](CC(=O)[O-])cs1)c1csc(N)n1 | > 100 µM (inactive) | > 100 µM (inactive) | > 100 µM (inactive) | – | > 100 µM (inactive) | > 100 µM (inactive) | > 100 µM (inactive) | > 100 µM (inactive) | > 100 µM (inactive) | – | > 100 µM (inactive) | > 100 µM (inactive) | > 100 µM (inactive) | > 100 µM (inactive) | > 100 µM (inactive) | > 100 µM (inactive) | – | – | – | –
17 | COc1cc2c(c(OC3OC(CO)C(O)C(O)C3O)c1)C(=O)CC(c1ccc(O)cc1)O2 (stereo not given) | > 100 µM (inactive) | > 100 µM (inactive) | > 100 µM (inactive) | > 100 µM (inactive) | > 100 µM (inactive) | > 100 µM (inactive) | > 100 µM (inactive) | – | > 100 µM (inactive) | – | > 100 µM (inactive) | > 100 µM (inactive) | > 100 µM (inactive) | > 100 µM (inactive) | > 100 µM (inactive) | > 100 µM (inactive) | > 100 µM (inactive) | > 100 µM (inactive) | > 100 µM (inactive) | > 100 µM (inactive)
